Measurements from ChEMBL document CHEMBL5154747, “Discovery of new carbonic anhydrase IX inhibitors as anticancer agents by toning the hydrophobic and hydrophilic rims of the active site to encounter the dual-tail approach” (Eur J Med Chem, 2022).
Active and inactive are the calls of the source. No cut-off for these calls is given here.

How the values were obtained:
HCC 2998 = assay: Cytotoxicity against human HCC 2998 cells assessed as inhibition of cell viability incubated for 72 hrs under hypoxia condition by MTT assay; format: functional, cell-based; conditions: HCC 2998, 72 h
SK-MEL-5 [1] = assay: Induction of cell cycle arrest in human SK-MEL-5 cells assessed as cell aggregates at 10 uM incubated for 24 hrs by FACSCalibur flow cytometry analysis (reference value: 1.79%); format: functional
[2] = Cytotoxicity against human HEK293 cells assessed as inhibition of cell viability by MTT assay
SK-MEL-5 [3] = assay: Induction of apoptosis in human SK-MEL-5 cells assessed as early apoptotic cells at 10 uM incubated for 24 hrs by Annexin-V/FITC and PI staining based flow cytometry analysis (reference value: 0.61 %); format: functional
SK-MEL-5 [4] = assay: Induction of apoptosis in human SK-MEL-5 cells assessed as necrotic cells at 10 uM incubated for 24 hrs by Annexin-V/FITC and PI staining based flow cytometry analysis (reference value: 1.56 %); format: functional
SK-MEL-5 [5] = assay: Induction of cell cycle arrest in human SK-MEL-5 cells assessed as accumulation of diploid cells at S phase at 10 uM incubated for 24 hrs by FACSCalibur flow cytometry analysis (reference value: 17.55%); format: functional
SK-MEL-5 [6] = assay: Induction of apoptosis in human SK-MEL-5 cells assessed as caspase 3 activation incubated for 24 hrs by Western blotting analysis; format: functional, cell-based
SK-MEL-5 [7] = assay: Induction of apoptosis in human SK-MEL-5 cells assessed as caspase 9 activation incubated for 24 hrs by Western blotting analysis; format: functional, cell-based
SK-MEL-5 [8] = assay: Induction of cell cycle arrest in human SK-MEL-5 cells assessed as accumulation at pre G1 phase at 10 uM incubated for 24 hrs by FACSCalibur flow cytometry analysis (reference value: 2.43%); format: functional
SK-MEL-5 [9] = assay: Induction of apoptosis in human SK-MEL-5 cells assessed as late apoptotic cells at 10 uM incubated for 24 hrs by Annexin-V/FITC and PI staining based flow cytometry analysis (reference value: 0.26 %); format: functional
SK-MEL-5 [10] = assay: Induction of cell cycle arrest in human SK-MEL-5 cells assessed as cell debris at 10 uM incubated for 24 hrs by FACSCalibur flow cytometry analysis (reference value: 1.38%); format: functional
SK-MEL-5 [11] = assay: Induction of cell cycle arrest in human SK-MEL-5 cells assessed as accumulation of diploid cells at G1 phase at 10 uM incubated for 24 hrs by FACSCalibur flow cytometry analysis (reference value: 69.23%); format: functional
SK-MEL-5 [12] = assay: Induction of cell cycle arrest in human SK-MEL-5 cells assessed as accumulation of diploid cells at G2/M phase at 10 uM incubated for 24 hrs by FACSCalibur flow cytometry analysis (reference value: 13.22%); format: functional
SK-MEL-5 [13] = assay: Induction of ROS generation in human SK-MEL-5 cells assessed as increase in intracellular ROS level incubated for 1 hrs by H2DCFDA probe based fluorometry analysis relative to control; format: functional
SK-MEL-5 [14] = assay: Cytotoxicity against human SK-MEL-5 cells assessed as inhibition of cell viability incubated for 72 hrs under hypoxia condition by MTT assay; format: functional, cell-based; conditions: SK-MEL-5, 72 h

## NS(=O)(=O)c1ccc(Nc2nc(N/N=C/c3ccccn3)nc(Nc3ccccc3)n2)cc1
HCC 2998
  IC50: 1.93 µM
SK-MEL-5 [1]
  Activity: 1.85%
[2]
  IC50: 45.6 µM
SK-MEL-5 [3]
  Activity: 4.28%
SK-MEL-5 [4]
  Activity: 7.99%
SK-MEL-5 [5]
  Activity: 32.41%
SK-MEL-5 [6]
  Activity: Active
SK-MEL-5 [7]
  Activity: Active
SK-MEL-5 [8]
  Activity: 37.24%
SK-MEL-5 [9]
  Activity: 24.97%
SK-MEL-5 [10]
  Activity: 1.42%
SK-MEL-5 [11]
  Activity: 58.78%
SK-MEL-5 [12]
  Activity: 8.81%
SK-MEL-5 [13]
  Activity: 23%
SK-MEL-5 [14]
  IC50: 8.33 µM

## CN(C)c1ccc(/C=N/Nc2nc(Nc3ccccc3)nc(Nc3ccc(S(N)(=O)=O)cc3)n2)cc1
[2]
  IC50: 39.8 µM
